Where a name gives a salt, the structure may show the parent alone. Read-outs that look alike come from different tables or passages of the source.
Experiments:
HFL1 = assay: Cell-based assay, anti-proliferative activity (Cell Counting Kit-8, 72 hours); conditions: Homo sapiens; HFL1 cells, Cell Counting Kit-8, 72 hours; read-out: IC50 (μM) HFL1
Method in brief: (§1)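 IC50 values reflect cell growth measured by Cell Counting Kit-8 following 72 hours of inhibitor exposure across a twofold dilution range up to 100 micro-M.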

CCD-18Co = assay: as above; conditions: Homo sapiens; CCD-18Co cells, Cell Counting Kit-8, 72 hours; read-out: IC50 (μM) CCD-18Co
Method in brief: as §1

PC14 = assay: as above; conditions: Homo sapiens, PC-14; PC14 cells, Cell Counting Kit-8, 72 hours; read-out: IC50 (μM) PC14
Method in brief: as §1

HCT-116 = assay: as above; conditions: Homo sapiens; HCT-116 cells, Cell Counting Kit-8, 72 hours; read-out: IC50 (μM) HCT-116
Method in brief: as §1

SUV39H2 [1] = target: T1, SUV39H2 (Homo sapiens (Human), UniProt Q9H5I1); assay: biochemical
A549 = assay: Cell-based assay, anti-proliferative activity (Cell Counting Kit-8, 72 hours); conditions: Homo sapiens
Method in brief: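 IC50 values come from growth read-outs taken after the cells' exposure to each candidate inhibitor. Cells had been plated in 96-well microtiter plates beforehand.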

SUV39H2 [2] = target: T1, SUV39H2; conditions: read-out: IC50 (μM) Suv 39H2 assay; enzyme assay
SUV39H2 [3] = target: T1, SUV39H2; assay: biochemical; type: biochemical; conditions: 3H-SAM 100 nM, H3 Histone Peptide 350 nM, room temperature 3 hours
Method in brief: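 Human SUV39H2, at a lot-specific concentration set by specific activity, was incubated with test compounds for 3 h at room temperature, then stopped with streptavidin SPA beads (50 μg/well final).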

[4] = A549 cells, Cell Counting Kit-8, 72 hours, read-out: IC50 (μM) A549
[5] = A549 cells, 72 hours exposure, Cell Counting Kit-8, read-out: A549 IC50
[6] = A549, 72 h, read-out: A549 IC50

T1 sequence (Q9H5I1 whole entry): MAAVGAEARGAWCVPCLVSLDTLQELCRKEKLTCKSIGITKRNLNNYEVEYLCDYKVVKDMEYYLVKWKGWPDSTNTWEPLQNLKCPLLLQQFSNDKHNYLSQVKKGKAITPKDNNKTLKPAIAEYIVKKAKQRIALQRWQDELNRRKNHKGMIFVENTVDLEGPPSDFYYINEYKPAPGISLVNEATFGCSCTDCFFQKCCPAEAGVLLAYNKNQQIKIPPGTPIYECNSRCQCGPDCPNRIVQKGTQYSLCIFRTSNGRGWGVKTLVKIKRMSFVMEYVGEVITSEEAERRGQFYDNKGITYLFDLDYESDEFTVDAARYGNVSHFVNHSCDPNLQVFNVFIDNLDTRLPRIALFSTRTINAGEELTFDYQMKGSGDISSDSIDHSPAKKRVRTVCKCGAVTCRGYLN

Compound	IC50 (SUV39H2 [3])	IC50 (A549; [5])	also measured
CCCS(=O)(=O)NC1CCN(c2ccn3cc(-c4cc(Cl)c(OC)cc4OC)nc3n2)CC1 [Example 193, N-(1-(2-(5-chloro-2,4-dimethoxyphenyl)imidazo[1,2-a]pyrimidin-7-yl)-piperidin-4-yl)propane-1-sulfonamide]	–	–	IC50 (HFL1): 10 µM; IC50 (CCD-18Co): 10 µM; IC50 (PC14): 6.7 µM; IC50 (HCT-116): 10 µM; IC50 (SUV39H2 [1]): 32.7 nM; IC50 (A549; [4]): 10 µM
COc1cc(OC)c(-c2cn3ccc(N4CCN(C(C)C)CC4)cc3n2)cc1Cl [Example 100, 2-(5-chloro-2,4-dimethoxyphenyl)-7-(4-isopropylpiperazin-1-yl)imidazo-[1,2-a]pyridine]	–	–	IC50 (HFL1): 3.2 µM; IC50 (CCD-18Co): 5.8 µM; IC50 (HCT-116): 3.2 µM; IC50 (SUV39H2 [2]): 0.0136 µM; IC50 (SUV39H2 [1]): 15.4 nM; IC50 (A549; [4]): 5.6 µM
COc1cc(OC)c(-c2cn3ccc(N[C@H]4C[C@H]5CC[C@@H](C4)N5Cc4ccccc4)cc3n2)cc1Cl [Example 433, N-((1R,3r,5S)-8-benzyl-8-azabicyclo[3.2.1]octan-3-yl)-2-(5-chloro-2,4-dimethoxyphenyl)imidazo[1,2-a]pyridin-7-amine]	57.6 nM	0.82 µM	–
COc1cc(OC)c(-c2cn3ccc(N4CC[C@H](NC(C)C5CCCCC5)C4)cc3n2)cc1Cl (stereo partly drawn) [Example 416, (3S)-1-(2-(5-chloro-2,4-dimethoxyphenyl)imidazo[1,2-a]pyridin-7-yl)-N-(1-cyclohexylethyl)pyrrolidin-3-amine]	47.6 nM	0.67 µM	–
COc1cc(OC)c(-c2cn3ccc(N4CCN(c5nccc(N(C)C)n5)CC4)cc3n2)cc1Cl [Example 356, 2-(4-(2-(5-chloro-2,4-dimethoxyphenyl)imidazo[1,2-a]pyridin-7-yl)piperazin-1-yl)-N,N-dimethylpyrimidin-4-amine]	60.6 nM	0.38 µM	–
CNC1CCN(c2cc(N3CCN(c4ccn5cc(-c6cc(Cl)c(OC)cc6OC)nc5c4)CC3)ncn2)C1 (stereo not shown) [Example 424, 1-(6-(4-(2-(5-chloro-2,4-dimethoxyphenyl)imidazo[1,2-a]pyridin-7-yl)piperazin-1-yl)pyrimidin-4-yl)-N-methylpyrrolidin-3-amine]	11.4 nM	0.7 µM	–
COc1cc(OC)c(-c2cn3ccc(N4CCN(C(C)=O)CC4)cc3n2)cc1Cl [Example 307, 1-(4-(2-(5-chloro-2,4-dimethoxyphenyl)imidazo[1,2-a]pyridin-7-yl)piperazin-1-yl)ethanone]	2 nM	2.2 µM	–
COc1cc(OC)c(-c2cn3ccc(N[C@H]4CC[C@H](Nc5nccc(N6CCN(C)CC6)n5)CC4)cc3n2)cc1Cl [Example 398, (1r,4r)-N^1-(2-(5-chloro-2,4-dimethoxyphenyl)imidazo[1,2-a]pyridin-7-yl)-N^4-(4-(4-methylpiperazin-1-yl)pyrimidin-2-yl)cyclohexane-1,4-diamine]	23.3 nM	0.44 µM	–
CNC1CCN(c2ncc(N3CCN(c4ccn5cc(-c6cc(Cl)c(OC)cc6OC)nc5c4)CC3)cn2)C1 (stereo not shown) [Example 401, 1-(5-(4-(2-(5-chloro-2,4-dimethoxyphenyl)imidazo[1,2-a]pyridin-7-yl)piperazin-1-yl)pyrimidin-2-yl)-N-methylpyrrolidin-3-amine dihydrochloride]	6.81 nM	–	IC50 (A549; [6]): 0.5 µM
COc1cc(OC)c(-c2cn3ccc(N4CCN(c5cnc(N6CCN(C)CC6)nc5)CC4)cc3n2)cc1Cl [Example 358, 2-(5-chloro-2,4-dimethoxyphenyl)-7-(4-(2-(4-methylpiperazin-1-yl)pyrimidin-5-yl)piperazin-1-yl)imidazo[1,2-a]pyridine]	17.1 nM	0.39 µM	–
COc1cc(OC)c(-c2cn3ccc(N4CCN(C(C)=O)C(C)C4)cc3n2)cc1Cl (stereo not shown) [Example 309, 1-(4-(2-(5-chloro-2,4-dimethoxyphenyl)imidazo[1,2-a]pyridin-7-yl)-2-methylpiperazin-1-yl)ethanone]	1.97 nM	2.1 µM	–
COc1cc(OC)c(-c2cn3ccc(N4CCN(c5ccnc(N6CCNC(C)C6)n5)CC4)cc3n2)cc1Cl (stereo not shown) [Example 362, 2-(5-chloro-2,4-dimethoxyphenyl)-7-(4-(2-(3-methylpiperazin-1-yl)pyrimidin-4-yl)piperazin-1-yl)imidazo[1,2-a]pyridine]	15.5 nM	0.68 µM	–
COc1cc(OC)c(-c2cn3ccc(N[C@H]4CC[C@@H](NCc5ccc(N(C)C)cc5)CC4)cc3n2)cc1Cl [Example 418, cis-N^1-(2-(5-chloro-2,4-dimethoxyphenyl)imidazo[1,2-a]pyridin-7-yl)-N^4-(4-(dimethylamino)benzyl)cyclohexane-1,4-diamine bis(2,2,2-trifluoroacetate)]	41.3 nM	0.61 µM	–
COc1cc(OC)c(-c2cn3ccc(N[C@H]4CC[C@H](Nc5ncccn5)CC4)cc3n2)cc1Cl [Example 318, (1r,4r)-N^1-(2-(5-chloro-2,4-dimethoxyphenyl)imidazo[1,2-a]pyridin-7-yl)-N^4-(pyrimidin-2-yl)cyclohexane-1,4-diamine hydrochloride]	9.73 nM	0.18 µM	–
COc1cc(OC)c(-c2cn3ccc(N[C@H]4C[C@H]5CC[C@@H](C4)N5C(=O)c4ccccc4)cc3n2)cc1Cl [Example 457, ((1R,3r,5S)-3-((2-(5-chloro-2,4-dimethoxyphenyl)imidazo[1,2-a]pyridin-7-yl)amino)-8-azabicyclo[3.2.1]octan-8-yl)(phenyl)methanone]	34.8 nM	0.82 µM	–
COc1cc(OC)c(-c2cn3ccc(N4CC[C@H](NCc5ccc(N(C)C(=O)OC(C)(C)C)cc5)C4)cc3n2)cc1Cl [Example 394, (S)-tert-butyl (4-(((1-(2-(5-chloro-2,4-dimethoxyphenyl)imidazo[1,2-a]pyridin-7-yl)pyrrolidin-3-yl)amino)methyl)phenyl)(methyl)carbamate]	10.3 nM	0.8 µM	–
COc1cc(OC)c(-c2cn3ccc(N[C@H]4CC[C@@H](NCc5cccc(F)c5)CC4)cc3n2)cc1Cl [Example 402, cis-N^1-(2-(5-chloro-2,4-dimethoxyphenyl)imidazo[1,2-a]pyridin-7-yl)-N^4-(3-fluorobenzyl)cyclohexane-1,4-diamine bis(2,2,2-trifluoroacetate)]	18.7 nM	0.74 µM	–
COc1cc(OC)c(-c2cn3ccc(N[C@H]4CC[C@@H](NCc5ccc([N+](=O)[O-])cc5)CC4)cc3n2)cc1Cl [Example 411, cis-N^1-(2-(5-chloro-2,4-dimethoxyphenyl)imidazo[1,2-a]pyridin-7-yl)-N^4-(4-nitrobenzyl)cyclohexane-1,4-diamine]	26.3 nM	0.37 µM	–
COc1cc(OC)c(-c2cn3ccc(N4CCN(c5nc(N)nc(NC(C)(C)C)n5)CC4)cc3n2)cc1Cl [Example 446, N^2-(tert-butyl)-6-(4-(2-(5-chloro-2,4-dimethoxyphenyl)imidazo[1,2-a]pyridin-7-yl)piperazin-1-yl)-1,3,5-triazine-2,4-diamine]	97.4 nM	0.43 µM	–
COc1cc(OC)c(-c2cn3ccc(N4CCN(Cc5ncccn5)CC4)cc3n2)cc1Cl [Example 352, 2-(5-chloro-2,4-dimethoxyphenyl)-7-(4-(pyrimidin-2-ylmethyl)piperazin-1-yl)imidazo[1,2-a]pyridine]	9.25 nM	10 µM	–
COc1cc(OC)c(-c2cn3ccc(N4CCC(C(=O)Nc5ccccc5)CC4)cc3n2)cc1Cl [Example 456, 1-(2-(5-chloro-2,4-dimethoxyphenyl)imidazo[1,2-a]pyridin-7-yl)-N-phenylpiperidine-4-carboxamide]	25.5 nM	0.63 µM	–
COc1cc(OC)c(-c2cn3ccc(N4CCC(Nc5ccncn5)CC4)cc3n2)cc1Cl [Example 374, N-(1-(2-(5-chloro-2,4-dimethoxyphenyl)imidazo[1,2-a]pyridin-7-yl)piperidin-4-yl)pyrimidin-4-amine]	31.4 nM	0.66 µM	–
CNC1CCN(c2ccnc(N3CCN(c4ccn5cc(-c6cc(Cl)c(OC)cc6OC)nc5c4)CC3)n2)CC1 [Example 426, 1-(2-(4-(2-(5-chloro-2,4-dimethoxyphenyl)imidazo[1,2-a]pyridin-7-yl)piperazin-1-yl)pyrimidin-4-yl)-N-methylpiperidin-4-amine]	17.7 nM	0.67 µM	–
COc1cc(OC)c(-c2cn3ccc(N4CCN(c5ccnc(N6CCC(O)CC6)n5)CC4)cc3n2)cc1Cl [Example 332, 1-(4-(4-(2-(5-chloro-2,4-dimethoxyphenyl)imidazo[1,2-a]pyridin-7-yl)piperazin-1-yl)pyrimidin-2-yl)piperidin-4-ol]	21.6 nM	–	IC50 (A549; [6]): 0.91 µM
COc1cc(OC)c(-c2cn3ccc(N4CCN(c5cc(N6CCN(C)CC6)ncn5)CC4)cc3n2)cc1Cl [Example 377, 2-(5-chloro-2,4-dimethoxyphenyl)-7-(4-(6-(4-methylpiperazin-1-yl)pyrimidin-4-yl)piperazin-1-yl)imidazo[1,2-a]pyridine dihydrochloride]	14.4 nM	–	IC50 (A549; [6]): 0.66 µM

— US10508109B2 (priority 2015, dated 2019)
